Common to all, as to assay: growth of human tumour cells (NCI), 48 h
The subject of assay [1] is HCC-2998 colon.
Assay [2] relates to HCT-15 colon.
The subject of assay [3] is HS 578T breast.
The subject of assay [4] is HT29 colon.
Assay [5] relates to IGROV1 ovarian.
Assay [6] relates to KM12 colon.
Assay [7] concerns MCF7 breast.
In assay [8] the test system is MDA-N.
In assay [9] the test system is SF-295 CNS.
For assay [10], the system named is SF-539 CNS.
Assay [11] deals with SN12C renal.
The subject of assay [12] is SNB-19 CNS.
For assay [13], the system named is SR leukemia.
Assay [14] relates to U251 CNS.
Assay [15] has as its system UACC-257 melanoma.
For assay [16], the system named is UO-31 renal.

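Cultured in 96-well plates, cells were exposed to test compound for 48 hours across five concentrations. The concentration for full growth arrest is given as TGI.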

As for `NC(=Nc1ccc(O)cc1)S(=O)O`, the TGI in assay [1], in assay [2], in assay [3], in [4], in assay [5] and in assay [6] was > 100 µM throughout. Also, the TGI in [7], in assay [8], in assay [9], in assay [10], in [11] and in assay [12] was > 100 µM throughout. The TGI in [13], in [14], in assay [15] and in [16] was > 100 µM throughout.
As for `O=C1/C(=C/c2ccco2)N=C(c2ccccc2)N1c1cc2cc(Sc3ccccc3)ccc2[nH]1`, the TGI in [2], in [3], in assay [4], in assay [5], in assay [7] and in [8] was > 25 µM each time. Further, the TGI in assay [10], in [11], in [12], in assay [13] and in assay [16] was > 25 µM throughout.
As for `CN(CCCNC(=O)c1nn(-c2ccc(Cl)cc2Cl)c2c1ccc1ccccc12)CCCNC(=O)c1nn(-c2ccc(Cl)cc2Cl)c2c1ccc1ccccc12`, the TGI in assay [1] worked out at 2.91 µM; in [2], 3.24 µM; in assay [3] it was 3.18 µM; in assay [4] it was 3.04 µM; in assay [5], 3.2 µM; in [6], 3.26 µM. Further, the TGI in assay [7] stood at 2.9 µM; in assay [8] it was 3.18 µM; in [9], 3.06 µM; in [10], 3.47 µM; in assay [11], 3.14 µM; in assay [12], 2.89 µM. The TGI was determined as 1.58 µM in assay [13], 3.07 µM in assay [14] and 3.26 µM in assay [15].
As for `Cc1ccc(/C=C/C(=O)c2cc(CN(C)C)c(O)c(CN(C)C)c2)cc1`, the TGI in assay [1] was 46.2 µM; in [2] it was 45.4 µM; in [3], 86.7 µM; in assay [4], 33 µM; in assay [5] it was > 100 µM; in assay [6] it was 25.2 µM. Moreover, the TGI in assay [7] worked out at 50.1 µM; in [8], 42.5 µM; in assay [9] it was 27.7 µM; in [10], 34.9 µM; in assay [11], 44 µM; in [13], 62.7 µM. Also, the values for the TGI in assay [14], in [15] and in assay [16] were 58 µM, 27.4 µM and 60 µM, respectively.
Consider `C[C@]12[C@@H]3CC[C@H]1[C@@H](OC(=O)Nc1cc([N+](=O)[O-])cc([N+](=O)[O-])c1)C(=O)N2CC3`, for which the TGI in assay [1], in [2], in assay [3], in [4], in assay [5] and in assay [6] was > 100 µM each time. The TGI in assay [7], in assay [8], in assay [9], in assay [11], in assay [12] and in [13] was > 100 µM throughout. Besides, the TGI in assay [14], in assay [15] and in [16] was > 100 µM throughout.
As to `CN1CCC23c4c5ccc(O)c4OC2c2[nH]c4ccccc4c2CC3(O)C1C5` (configuration not stated), the TGI in [1] is 32 µM; in assay [2], > 100 µM; in [3], 70.9 µM; in assay [4] it was > 100 µM; in assay [5], > 100 µM; in assay [6], > 100 µM. Also, the TGI in assay [7] was > 100 µM; in assay [8] it was 44.9 µM; in assay [9] it was > 100 µM; in assay [11], > 100 µM; in assay [12], > 100 µM; in [13], > 100 µM. Moreover, the figures for the TGI in assay [14], in assay [15] and in [16] were 52.9 µM, 36.8 µM and 30.9 µM, respectively.
In the case of `O=C(O)c1ccccc1/C=N/NC1=NCCCCN1`, the TGI in assay [1], in assay [2], in assay [3], in [4], in [5] and in assay [6] was > 100 µM in each case. The TGI in [7], in assay [8], in [9], in [10], in [12] and in assay [13] was > 100 µM throughout. Further, the TGI in [14], in assay [15] and in assay [16] was > 100 µM each time.
For `O=C1/C(=C/c2ccc(Cl)cc2)N=C(c2ccccc2)N1c1ccc(S(=O)(=O)Nc2nccs2)cc1`, the TGI is 47.4 µM in [1]; > 100 µM in [2]; > 100 µM in assay [3]; 56.3 µM in [4]; > 100 µM in assay [6]; 82.9 µM in [7]. The TGI in [8], in assay [9], in assay [10], in [11], in assay [12] and in assay [13] was > 100 µM each time. Besides, the TGI in assay [14], in assay [15] and in [16] was > 100 µM throughout.
Turning to `Cc1c(C)c2c(c(N)c1C#N)C(=O)N(CCN1CCNCC1)C2=O`, the TGI in assay [1], in assay [2], in assay [3], in assay [5], in assay [6] and in [7] was > 100 µM throughout. Besides, the TGI in [8] is > 100 µM; in [9], > 100 µM; in assay [10] it was > 100 µM; in assay [11] it was > 100 µM; in [12] it was > 100 µM; in [13], 95 µM. The values for the TGI in assay [14], in assay [15] and in assay [16] were > 100 µM, > 100 µM and 90.9 µM, respectively.
